Earlier results as cited in paper PMC10664590 (Chemical Science, 2023).

Compound: O=c1ccc2ccc(O)cc2o1 [7-hydroxy-cumarine]
- long-wavelength absorption maximum: around 330 nm
- fluorescence maximum (in ethanol): around 380 nm
